Reference: patent US20080213363A1, “Methods and compositions for delivering 5-HT3 antagonists across the oral mucosa” (priority 2003, published 2008)
Like-named read-outs stand apart in the source and are kept apart here.

Type: in vitro ADME
Settings: PAMPA
Excerpt: Topics Med. Chem. 2001, 1, 277-351.

Question: With `Cc1nccn1CC1CCc2c(c3ccccc3n2C)C1=O.Cl` (stereo not drawn) [Ondansetron HCl, ondansetron HCl] as the compound, how does the Papp (pH 5.4) read?
Answer: 0.32 ×10⁻⁶ cm/s

Question: What about the Papp (pH 7.4) of the same compound?
Answer: 1.3 ×10⁻⁶ cm/s

Question: And the Papp (pH 8.5)?
Answer: 3.25 ×10⁻⁶ cm/s
